Data from patent US20120225093A1, “Abrogating HIV-1 Infection via Drug-Induced Reactivation of Apoptosis” (UNIVERSITY OF MEDICINE AND DENTISTRY OF NEW JERSEY, priority 2010, published 2012).

Experiments:
Type in all cases: cell-based
H9-HIV cells = test: Intracellular cellular and retroviral proteins by flow cytometry in H9-HIV cells
Method: Intracellular antigens were determined, as geometric means of fluorescence, by flow cytometric analysis using a BD FACSCalibur™ and its BD FACStation System™ (Becton Dickinson; San Jose, Calif.). Intracellular antigens were stained according to the instrument producer's instructions.
CD4+ T cells isolated from infected individuals have increased Bcl-2 levels compared to uninfected lymphocytes and some reports implicate HIV-1 Tat in preventing apoptosis in persistently infected cells by inducing the transcription of Bcl-2. Since CPX blocks HIV-1 gene expression, Bcl-2 expression in H9 and H9-HIV cells was determined. […] Retroviral proteins can also control apoptosis. Therefore, assays were carried out to measure the response of individual retroviral proteins in H9-HIV (FIG. 10C) to the shut-down of the HIV-1 promoter by CPX. […] Vpr induces apoptosis via caspase-3 activation.

HIV-1 RNA = test: RNase protection assay of HIV RNA from molecular clones in 293T cells; conditions: for accumulation of FF mRNA: pNL4-3-LucE- in 293T; for reduction of spliced and unspliced HIV RNAs: pNL4-3-LucE-, cytoplasmic and nuclear fractions, 12 hr
Method: 293T cells (2×10^6 cells) were seeded in 10-cmdiameter plates and transfected 20 hr later by using Transfectene (Bio-Rad) and treated with compounds. Cells were harvested at 15 hr post-transfection and suspended in a low salt buffer (10 mM Tris.HCl pH 7.4, 10 mM NaCl, 1.5 mM MgCl2, and 0.5% NP-40). Cells were vortexed for 10 sec and incubated on ice for 10 min. Cell extracts were centrifuged at 500×g for 3 min, followed by cytoplasmic and nuclear RNA isolation from the supernatant and the pellet, respectively, using Trizol (Invitrogen) according to the manufacturer's instructions.
RPA was performed with 10 μg of cytoplasmic RNA and 5 μg of nuclear RNA, using the RPAIII kit from Ambion (Austin, Tex.) according to the manufacturer's instructions. Synthesis of radiolabeled RNA and protection assays were performed as described in Young et al. Mol Cell Biol 2003, 23:6373-6384. To generate antisense RNA probe against the HIV-1 major splice site, firefly luciferase and Renilla luciferase pBSII-KS+HIV (+80-341), pSP-luc and pSP-rluc were linearized with HindIII, XbaI and BsaI, respectively. The resulting probes were 309, 390 and 245 nt long, respectively. The antisense HIV-1 leader RNA probe complementary to nt+83 to −117 of the LTR was generated by subcloning between the XbaI and HindIII sites of the pcDNA3.1 vector. Antisense probe corresponding to the N terminus of eIF5A was generated by subcloning 250 nt of its cDNA sequence into pcDNA3.1.
Next, the effects of CPX and DEF on viral mRNA expression were examined. […] To determine whether the action of CPX and DEF is exerted at the level of the accumulation, splicing or nucleo-cytoplasmic distribution of HIV RNA, pNL4-3-LucE- was transfected into 293T cells and monitored spliced and unspliced HIV RNA after drug treatment. RNase protection assays were carried out using a probe complementary to the 5′ region of all HIV-1 transcripts (Zheng et al. Nat Cell Biol 2003, 5:611-618). The probe spans the major splice donor site so two sizes of protected fragments are generated: unspliced RNA protects an RNA fragment 50 nucleotides (nt) longer than that from spliced RNAs (FIG. 4A). CPX and DEF, but not P2, reduced the level of both spliced and unspliced RNAs by ˜50% (FIG. 4B). […] In contrast, the production of Renilla luciferase RNA driven by the CMV promoter was unchanged in the nucleus and cytoplasm after drug treatment (FIG. 4B). […]
The rev-defective molecular clone pMRev(−) contains the entire HIV-1 genome but Rev expression is prevented by substitutions in its initiation codon. To compare the inhibitory effect of CPX and DEF in the presence and absence of Rev, cells were transfected with pMRev(−), either with or without a Rev expression vector, and RNA was analyzed by RPA as above. […]

eIF5A:DHS complex = biological target: T1, eIF5A:DHS complex (Homo sapiens, UniProt P49366); test: Co-immunoprecipitation of eIF5A with DHS from 293T cell extracts; conditions: 293T transfected with FLAG-DHS
T1 construct: expressed in transfected cells; host or cells: 293T cells (FLAG-DHS transfected, eIF5A endogenous)
T1 sequence (P49366 1-369): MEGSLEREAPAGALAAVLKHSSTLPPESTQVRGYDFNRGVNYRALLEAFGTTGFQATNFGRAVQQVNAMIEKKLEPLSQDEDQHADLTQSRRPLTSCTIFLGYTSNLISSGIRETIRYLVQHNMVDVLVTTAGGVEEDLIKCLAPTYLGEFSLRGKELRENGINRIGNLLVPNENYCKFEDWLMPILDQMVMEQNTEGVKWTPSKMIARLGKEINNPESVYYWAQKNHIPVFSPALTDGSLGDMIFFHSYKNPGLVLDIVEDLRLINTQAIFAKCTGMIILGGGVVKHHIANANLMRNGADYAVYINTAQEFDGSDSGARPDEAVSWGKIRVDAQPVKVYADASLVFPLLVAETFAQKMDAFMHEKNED
Method: Immunoprecipitation and immunoblotting experiments were carried out as described previously in Hoque et al. Mol Cell Biol 2003, 23:1688-1702.
eIF5A forms tight complexes with its modifying enzymes. Unmodified eIF5A (lysine-50) immunoprecipitates with DHS and deoxyhypusyl-eIF5A interacts with DOHH in vitro. It was discovered that the deoxyhypusyl-eIF5A:DOHH complex formed in vivo can be detected by immunoprecipitation from cell extracts. Taking advantage of this finding, the effects of the drugs on the enzyme-substrate interaction were tested. FLAG-eIF5A was expressed in 293T cells and complexes that immunoprecipitated with anti-FLAG antibody were immunoblotted and probed with antibodies against DOHH. […] As a further control, the DHS inhibitor GC7 was included in this assay. […] As expected, none of the compounds affected the immunoprecipitation of FLAG-eIF5A (FIG. 2D, middle panel) or the expression of endogenous eIF5A (FIG. 2D, bottom panel). Reciprocally, the interaction between endogenous eIF5A and tagged DOHH was inhibited by CPX and DEF (FIG. 2E, right). Similarly, the interaction of endogenous eIF5A with tagged DHS was inhibited by GC7 (FIG. 2E, left) but resistant to CPX and DEF. It is concluded that CPX and DEF, but not P2 or DFOX, target DOHH and inhibit its interaction with its substrate, deoxyhypusylelF5A.

SMILES: Cc1c(O)c(=O)ccn1C [DEF, 3-hydroxy-1,2-dimethylpyridin-4(1H)-one]
- response of retroviral proteins Rev, p24, Tat, Vpr (H9-HIV cells; DEF): sparing Rev, decreasing p24 and Tat, and increasing Vpr
- accumulation of FF mRNA (HIV-1 RNA): decreased accumulation of FF mRNA
- reduction of spliced and unspliced HIV RNAs (HIV-1 RNA): ~50%
- interaction of endogenous eIF5A with tagged DHS (eIF5A:DHS complex): resistant

SMILES: Cc1cc(C2CCCCC2)n(O)c(=O)c1 [CPX, 6-cyclohexyl-1-hydroxy-4-methylpyridin-2[1H]-one]
- active caspase-3 (H9-HIV cells; 30 μM CPX, 24 and 48 hr): the increase in Vpr paralleled that of active caspase-3
- intracellular Rev (H9-HIV cells; 30 μM CPX, 24 and 48 hr): only marginally affected
- intracellular Tat (H9-HIV cells; 30 μM CPX, 24 and 48 hr): similarly reduced
- increase of Vpr level (H9-HIV cells; 30 μM CPX, within 24 hr): ~15%
- reduction of intracellular p24 (H9-HIV cells; 30 μM CPX, within 24 hr): 30%
- increase of Vpr level (H9-HIV cells; 30 μM CPX, within 48 hr): ~70%
- reduction of intracellular p24 (H9-HIV cells; 30 μM CPX, within 48 hr): 70%
- dose-dependent change in Bcl-2 content (H9-HIV cells; 24 hr, H9 and H9-HIV): neither of these measures achieved statistical significance
- cells positive for Bcl-2 (H9-HIV cells; CPX 24 hr, irrespective of infection (H9 and H9-HIV)): ~35%
- accumulation of FF mRNA (HIV-1 RNA): decreased accumulation of FF mRNA
- reduction of spliced and unspliced HIV RNAs (HIV-1 RNA): ~50%
- interaction of endogenous eIF5A with tagged DHS (eIF5A:DHS complex): resistant
